Consider 3 molecules from patent US10683296B2, “TLR7 agonist trifluoroacetate salt and crystalline form B thereof, preparation methods and uses” (CHIA TAI TIANQING PHARMACEUTICAL GROUP CO., LTD., priority 2016, dated 2020).

Series [1] is described as follows: Stability tests of crystal form B (high temperature, high humidity, light). The settings on record: general statement; no data of Examples 2-4 printed. In kind it is physicochemical. The method, then:
The crystal form B prepared in Example 1 was tested in the accelerated test under high temperature conditions for stability in accordance with Guidelines for the Stability Test of Pharmaceutical Ingredients and Pharmaceutical Preparations (Chinese Pharmacopoeia 2010 Appendix XIXC).
The crystal form B was placed in an open-clean container at 60° C. The samples were taken for test on day 10, day 20 and day 30, respectively. The results were compared with the initial test result on day 0.
The crystal form B prepared in Example 1 was tested in the accelerated test under high humidity conditions for stability in accordance with Guidelines for the Stability Test of Pharmaceutical Ingredients and Pharmaceutical Preparations (Chinese Pharmacopoeia 2010 Appendix XIXC).
The crystal form B was subjected to an accelerated test in a constant temperature and humidity vessel under the conditions of 40° C./75% humidity (open). The samples were taken for test on day 30, day 60 and day 90, respectively. The results were compared with the initial test result on day 0.
The crystal form B prepared in Example 1 under light conditions was tested for stability in accordance with Guidelines for the Stability Test of Pharmaceutical Ingredients and Pharmaceutical Preparations (Chinese Pharmacopoeia 2010 Appendix XIXC).
The crystal form B was placed in an illumination environment of 5000 Lx±500 Lx. […]

Series [2] deals with human peripheral blood mononuclear cells (PBMC). As to the kind of experiment: Peripheral blood mononuclear cell cytokine stimulating test. In kind it is cell-based. The settings on record: for TNF-α MEC / IFN-α MEC: human PBMC, 24 h, CBA flow cytometry; for IFN-α MEC: lowest drug concentration stimulating the production of 30 pg/mL of IFN-α. On the procedure: The purpose of this example is to determine the expression level of cytokines 24 h after stimulation to human peripheral blood mononuclear cells (PBMC) with the compound of formula I.
The cell supernatant was assayed without dilution and the levels of IFN-α were directly determined. The compound of formula was firstly formulated into 20 mM DMSO stock solution and was gradient diluted with cell medium in 10-fold with the total number of 11 diluting points. The compounds in 9 diluting points (the highest concentration was 200 μmol/L) were added into 96-well plate with 50 μL in each well. Fresh human peripheral blood mononuclear cells were inoculated, with 150 μL in each well containing 450,000 cells. The cell culture plate was incubated in an incubator at 37° C., 5% CO2 for 24 h. After incubation, the culture plate was centrifuged at 1200 rpm for 5 min and the supernatant was collected and stored at −20° C. for determination. The determination of cytokine was performed using Cytometric Bead Array (CBA) of BD-Pharmingen on flow cytometer. Using the above determining method, the lowest drug concentration stimulating the production of 30 pg/mL of IFN-α was designated as the MEC value in the cytokine stimulating test.
(In general: Flow cytometry measures light scatter and fluorescence of single cells or particles in a stream.)

For series [3], the target named is T1, Toll-like receptor 7 (HEK-blue hTLR7 cell) (Homo sapiens, UniProt Q9NYK1).
T1 construct: host or cells: HEK-blue hTLR7 cell (HEK293-derived reporter line)
T1 sequence (Q9NYK1 27-1049): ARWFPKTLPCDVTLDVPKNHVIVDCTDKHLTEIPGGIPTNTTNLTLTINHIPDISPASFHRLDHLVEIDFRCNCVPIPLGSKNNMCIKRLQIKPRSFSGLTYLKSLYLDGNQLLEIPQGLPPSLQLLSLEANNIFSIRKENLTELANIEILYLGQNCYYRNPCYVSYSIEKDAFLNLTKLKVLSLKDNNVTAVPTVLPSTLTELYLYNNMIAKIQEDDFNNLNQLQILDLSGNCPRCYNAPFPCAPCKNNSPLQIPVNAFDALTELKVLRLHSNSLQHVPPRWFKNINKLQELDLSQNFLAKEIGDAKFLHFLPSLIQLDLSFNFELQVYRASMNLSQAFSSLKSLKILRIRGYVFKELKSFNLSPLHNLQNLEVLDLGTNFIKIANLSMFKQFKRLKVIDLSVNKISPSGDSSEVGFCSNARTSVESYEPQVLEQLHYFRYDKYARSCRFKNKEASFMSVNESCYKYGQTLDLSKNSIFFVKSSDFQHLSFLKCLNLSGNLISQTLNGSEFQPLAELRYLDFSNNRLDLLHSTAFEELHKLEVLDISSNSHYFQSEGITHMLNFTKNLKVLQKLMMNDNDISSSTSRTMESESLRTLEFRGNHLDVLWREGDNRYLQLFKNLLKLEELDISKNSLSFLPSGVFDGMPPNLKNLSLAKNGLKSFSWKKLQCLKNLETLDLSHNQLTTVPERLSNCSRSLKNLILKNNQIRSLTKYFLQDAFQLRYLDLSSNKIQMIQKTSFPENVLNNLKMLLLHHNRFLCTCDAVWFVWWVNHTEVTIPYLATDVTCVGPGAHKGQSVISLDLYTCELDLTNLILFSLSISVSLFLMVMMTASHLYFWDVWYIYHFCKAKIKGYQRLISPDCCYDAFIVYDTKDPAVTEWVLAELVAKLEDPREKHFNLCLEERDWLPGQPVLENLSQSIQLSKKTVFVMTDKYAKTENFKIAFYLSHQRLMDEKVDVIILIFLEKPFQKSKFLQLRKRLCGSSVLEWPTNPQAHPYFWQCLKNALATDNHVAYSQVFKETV
As to the kind of experiment: Toll-like receptor 7 in vitro receptor binding activity screen (HEK-blue hTLR7 cell, alkaline phosphatase reporter). The note with it: versus control GS-9620. In kind it is cell-based. The method, then: (§1) • HEK-blue hTLR7 cell and HEK-blue hTLR8 cell (available from InvivoGen) • DMEM medium • heat inactivated fetal bovine serum • Anti Mycoplasma reagent Normocin™ • bleomycin • blasticidin
(§2) The structures of GS-9620 and R848 used are as follows, wherein the preparation of GS-9620 could be referred to the process disclosed in US20100143301; R848 was commercially available from ABGENT (IMG-2208, specification: 0.5 mg).
(§3) The compounds were gradient diluted with DMSO in 3-fold using liquid work station POD starting at a concentration of 10 mmol/L and 10 points were diluted (2nd column to 11th column, and each point was duplicated). At 12th column, 1 μL of 5 mg/mL positive compound R848 was added as positive control; and at 1st column, 1 μL of DMSO was added as negative control. Each well contained 1 μL of DMSO. • 2. The cells in culture flask were collected and the cell density was diluted to 250,000 cells/mL. • 3. 200 μL (50,000 cells/well) of cell suspension was added into prepared compound plate and the final concentration of DMSO in each well was 0.5%. • 4. The culture plates containing cells and the compounds were incubated in CO2 incubator for 24 h at 37° C., 5% CO2. • 5. […] After 1 h, the content of alkaline phosphatase in 20 μL of supernatant was determined using Microplate Reader OD650. • 7. […]

For series [4], the target named is T2, Toll-like receptor 8 (HEK-blue hTLR8 cell) (Homo sapiens, UniProt Q9NR97).
T2 construct: host or cells: HEK-blue hTLR8 cell (HEK293-derived reporter line)
T2 sequence (Q9NR97 27-1041): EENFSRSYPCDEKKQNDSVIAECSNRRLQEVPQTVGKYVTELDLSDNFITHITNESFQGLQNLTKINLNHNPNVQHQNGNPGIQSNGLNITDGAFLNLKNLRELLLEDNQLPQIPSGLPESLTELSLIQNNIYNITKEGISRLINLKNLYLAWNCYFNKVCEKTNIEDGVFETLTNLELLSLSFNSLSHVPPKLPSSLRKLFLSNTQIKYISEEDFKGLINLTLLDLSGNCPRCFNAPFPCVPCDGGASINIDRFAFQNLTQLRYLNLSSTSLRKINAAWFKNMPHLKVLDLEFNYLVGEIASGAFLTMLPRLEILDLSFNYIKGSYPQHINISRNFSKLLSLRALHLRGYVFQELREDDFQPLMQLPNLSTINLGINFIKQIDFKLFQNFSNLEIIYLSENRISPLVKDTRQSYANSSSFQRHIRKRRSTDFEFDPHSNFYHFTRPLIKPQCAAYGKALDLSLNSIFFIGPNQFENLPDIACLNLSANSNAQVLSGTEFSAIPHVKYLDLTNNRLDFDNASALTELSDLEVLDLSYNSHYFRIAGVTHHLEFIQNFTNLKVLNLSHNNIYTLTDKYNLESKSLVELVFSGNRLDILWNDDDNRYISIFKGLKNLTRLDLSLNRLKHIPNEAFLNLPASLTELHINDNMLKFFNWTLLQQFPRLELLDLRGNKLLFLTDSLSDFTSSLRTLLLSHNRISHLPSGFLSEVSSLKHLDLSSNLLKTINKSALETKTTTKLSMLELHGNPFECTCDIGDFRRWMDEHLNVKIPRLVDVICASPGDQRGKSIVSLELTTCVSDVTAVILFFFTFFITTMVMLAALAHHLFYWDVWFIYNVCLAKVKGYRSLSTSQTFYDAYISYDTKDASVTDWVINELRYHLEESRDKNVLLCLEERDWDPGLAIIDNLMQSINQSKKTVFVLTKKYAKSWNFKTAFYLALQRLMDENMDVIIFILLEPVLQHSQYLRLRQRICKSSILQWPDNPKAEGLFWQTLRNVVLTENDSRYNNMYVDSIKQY
As to the kind of experiment: Toll-like receptor 8 in vitro receptor binding activity screen (HEK-blue hTLR8 cell, alkaline phosphatase reporter). Format: cell-based. The note with it: versus control GS-9620. On the procedure: as §1, §2, §3

Molecules are shown by their SMILES.

With `CCCCOc1nc(N)c2[nH]cc(Cc3ccc(CN4CCCC4)cc3)c2n1.O=C(O)C(F)(F)F` [Crystal Form B of Trifluoroacetate of 2-butoxy-7-(4-(pyrrolidin-1-ylmethyl)benzyl)-5H-pyrrolo[3,2-d]pyrimidin-4-amine], in series [1], the “stability of the crystal form” value is “good stability”.

`CCCCOc1nc(N)c2c(n1)N(Cc1cccc(CN3CCCC3)c1)CC(=O)N2` [GS-9620, reference compound]: in series [2], the “TNF-α MEC” value is given as 500 nM and the “IFN-α MEC” value is 50 nM.

With `CCCCOc1nc(N)c2[nH]cc(Cc3ccc(CN4CCCC4)cc3)c2n1` [The compound of formula I, 2-butoxy-7-(4-(pyrrolidin-1-ylmethyl)benzyl)-5H-pyrrolo[3,2-d]pyrimidin-4-amine], in series [3], the “in vitro receptor binding activity to Toll-like receptor 7 compared with the control GS-9620” value was “higher”. Moreover, the “in vitro receptor binding activity to Toll-like receptor 8 compared with the control GS-9620” value in series [4] was “lower”. In series [2], the “TNF-α MEC” value worked out at 500 nM and the “IFN-α MEC” value is on record as 5 nM. In series [2] (versus control GS-9620), the “TNF-α inducing activity compared with the control GS-9620” value is “comparable” and the “in vitro IFN-α inducing activity of PBMCs compared with the control GS-9620” value is given as “better”.
